Tested on: IGROV1 complex spheroids (HUVEC, MSC), viability % test/control
Assay: Anticancer human tumor IGROV1 cell line growth inhibition [GQUAD];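 note: spheroids exposed to compounds for 7 days before readout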;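 for viability, T/C: 100% = DMSO vehicle control viability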
Conditions: for IC50: curve of first compound; for viability, T/C: stronger effect = lower value
Summary of the method: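 Tumor cells were grown as complex spheroids with HUVEC endothelial cells and mesenchymal stem cells as stroma. G-quadruplex stabilizers were combined with targeted agents over half-log dilutions from near the clinical Cmax, or from 10 microM.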

[1] = second compound 0.0316 µM, first compound 0.0316 µM
[2] = second compound 0.0316 µM, first compound 0.1 µM
[3] = second compound 0.0316 µM, first compound 0.316 µM
[4] = second compound 0.0316 µM, first compound 1 µM
[5] = second compound 0.0316 µM, first compound 3.16 µM
[6] = second compound 0.0316 µM, first compound 10 µM
[7] = second compound 0.1 µM, first compound 0.0316 µM
[8] = second compound 0.1 µM, first compound 0.1 µM
[9] = second compound 0.1 µM, first compound 0.316 µM
[10] = second compound 0.1 µM, first compound 1 µM
[11] = second compound 0.1 µM, first compound 3.16 µM
[12] = second compound 0.1 µM, first compound 10 µM
[13] = second compound 0.316 µM, first compound 0.0316 µM
[14] = second compound 0.316 µM, first compound 0.1 µM
[15] = second compound 0.316 µM, first compound 0.316 µM
[16] = second compound 0.316 µM, first compound 1 µM
[17] = second compound 0.316 µM, first compound 3.16 µM
[18] = second compound 0.316 µM, first compound 10 µM
[19] = second compound 1 µM, first compound 0.0316 µM
[20] = second compound 1 µM, first compound 0.1 µM
[21] = second compound 1 µM, first compound 0.316 µM
[22] = second compound 1 µM, first compound 1 µM
[23] = second compound 1 µM, first compound 3.16 µM
[24] = second compound 1 µM, first compound 10 µM
[25] = second compound 3.16 µM, first compound 0.0316 µM
[26] = second compound 3.16 µM, first compound 0.1 µM
[27] = second compound 3.16 µM, first compound 0.316 µM
[28] = second compound 3.16 µM, first compound 1 µM
[29] = second compound 3.16 µM, first compound 3.16 µM
[30] = second compound 3.16 µM, first compound 10 µM
[31] = second compound 10 µM, first compound 0.0316 µM
[32] = second compound 10 µM, first compound 0.1 µM
[33] = second compound 10 µM, first compound 0.316 µM
[34] = second compound 10 µM, first compound 1 µM
[35] = second compound 10 µM, first compound 3.16 µM
[36] = second compound 10 µM, first compound 10 µM

CC(C)(O)C1CCC(Nc2ccc3ncc(-c4cccc(C(F)(F)F)c4)n3n2)CC1 (stereo not drawn) + Cc1[nH]c2ccc(F)cc2c1-c1nc2c3cccnc3c3ncccc3c2[nH]1
IC50 (second compound 0.0316 µM): 2.01 µM | IC50 (second compound 0.1 µM): 1.82 µM | IC50 (second compound 0.316 µM): 0.623 µM | IC50 (second compound 1 µM): < 0.0316 µM | IC50 (second compound 3.16 µM): < 0.0316 µM | IC50 (second compound 10 µM): < 0.0316 µM | viability, T/C [1]: 93.8% | viability, T/C [2]: 83.1% | viability, T/C [3]: 94.3% | viability, T/C [4]: 82.7% | viability, T/C [5]: 27.4% | viability, T/C [6]: 30% | viability, T/C [7]: 99.3% | viability, T/C [8]: 83.3% | viability, T/C [9]: 102% | viability, T/C [10]: 68.5% | viability, T/C [11]: 32.9% | viability, T/C [12]: 33.4% | viability, T/C [13]: 69.6% | viability, T/C [14]: 70.6% | viability, T/C [15]: 65.3% | viability, T/C [16]: 38.8% | viability, T/C [17]: 6.69% | viability, T/C [18]: 5.42% | viability, T/C [19]: 3.27% | viability, T/C [20]: 3.08% | viability, T/C [21]: 4.14% | viability, T/C [22]: 3.08% | viability, T/C [23]: 3.37% | viability, T/C [24]: 2.43% | viability, T/C [25]: 2.86% | viability, T/C [26]: 3.13% | viability, T/C [27]: 3.35% | viability, T/C [28]: 3.26% | viability, T/C [29]: 2.39% | viability, T/C [30]: 2.06% | viability, T/C [31]: 3.41% | viability, T/C [32]: 3.18% | viability, T/C [33]: 3.27% | viability, T/C [34]: 2.99% | viability, T/C [35]: 2.37% | viability, T/C [36]: 2.38%

COc1ncnc(C2CC2)c1-c1ncc2cnn(Cc3ccc(-c4nc(C(F)(F)F)cn4C(C)C)cc3)c2n1 + Cc1[nH]c2ccc(F)cc2c1-c1nc2c3cccnc3c3ncccc3c2[nH]1
IC50 (second compound 0.0316 µM): > 10 µM | IC50 (second compound 0.1 µM): > 10 µM | IC50 (second compound 0.316 µM): > 10 µM | IC50 (second compound 1 µM): < 0.0316 µM | IC50 (second compound 3.16 µM): < 0.0316 µM | IC50 (second compound 10 µM): < 0.0316 µM | viability, T/C [1]: 95.7% | viability, T/C [2]: 79.5% | viability, T/C [3]: 89.6% | viability, T/C [4]: 89.9% | viability, T/C [5]: 90.3% | viability, T/C [6]: 93.2% | viability, T/C [7]: 100% | viability, T/C [8]: 74.6% | viability, T/C [9]: 79.7% | viability, T/C [10]: 80.7% | viability, T/C [11]: 100% | viability, T/C [12]: 71.2% | viability, T/C [13]: 63.7% | viability, T/C [14]: 51.8% | viability, T/C [15]: 72.1% | viability, T/C [16]: 62.4% | viability, T/C [17]: 72.8% | viability, T/C [18]: 46.1% | viability, T/C [19]: 3.69% | viability, T/C [20]: 3.51% | viability, T/C [21]: 4.12% | viability, T/C [22]: 3.46% | viability, T/C [23]: 4.03% | viability, T/C [24]: 3.74% | viability, T/C [25]: 2.91% | viability, T/C [26]: 3.63% | viability, T/C [27]: 3.35% | viability, T/C [28]: 3.99% | viability, T/C [29]: 3.54% | viability, T/C [30]: 2.75% | viability, T/C [31]: 3.12% | viability, T/C [32]: 4.19% | viability, T/C [33]: 4.15% | viability, T/C [34]: 3.3% | viability, T/C [35]: 3.45% | viability, T/C [36]: 2.6%

CC[C@@]1(O)C(=O)OCc2c1cc1n(c2=O)Cc2cc3c(CN(C)C)c(O)ccc3nc2-1 + Cc1cnc(CNC(=O)c2c(=O)c3ccc(N4CCCN(C)CC4)nc3n3c2sc2ccccc23)cn1
IC50 (second compound 0.0316 µM): 0.0133 µM | IC50 (second compound 0.1 µM): < 0.000999 µM | IC50 (second compound 0.316 µM): < 0.000999 µM | IC50 (second compound 1 µM): < 0.000999 µM | IC50 (second compound 3.16 µM): < 0.000999 µM | IC50 (second compound 10 µM): < 0.000999 µM | viability, T/C (second compound 0.0316 µM, first compound 0.000999 µM): 69.8% | viability, T/C (second compound 0.0316 µM, first compound 0.00316 µM): 57.8% | viability, T/C (second compound 0.0316 µM, first compound 0.00999 µM): 60.4% | viability, T/C [1]: 19.8% | viability, T/C (second compound 0.0316 µM, first compound 0.0999 µM): 12.4% | viability, T/C [3]: 8.43% | viability, T/C (second compound 0.1 µM, first compound 0.000999 µM): 33% | viability, T/C (second compound 0.1 µM, first compound 0.00316 µM): 34.3% | viability, T/C (second compound 0.1 µM, first compound 0.00999 µM): 31.3% | viability, T/C [7]: 15.8% | viability, T/C (second compound 0.1 µM, first compound 0.0999 µM): 12% | viability, T/C [9]: 9.62% | viability, T/C (second compound 0.316 µM, first compound 0.000999 µM): 24.3% | viability, T/C (second compound 0.316 µM, first compound 0.00316 µM): 29.3% | viability, T/C (second compound 0.316 µM, first compound 0.00999 µM): 18% | viability, T/C [13]: 12.4% | viability, T/C (second compound 0.316 µM, first compound 0.0999 µM): 11.9% | viability, T/C [15]: 8.87% | viability, T/C (second compound 1 µM, first compound 0.000999 µM): 21.8% | viability, T/C (second compound 1 µM, first compound 0.00316 µM): 18.1% | viability, T/C (second compound 1 µM, first compound 0.00999 µM): 12.3% | viability, T/C [19]: 11.1% | viability, T/C (second compound 1 µM, first compound 0.0999 µM): 13.1% | viability, T/C [21]: 9.29% | viability, T/C (second compound 3.16 µM, first compound 0.000999 µM): 10.1% | viability, T/C (second compound 3.16 µM, first compound 0.00316 µM): 8.55% | viability, T/C (second compound 3.16 µM, first compound 0.00999 µM): 9.85% | viability, T/C [25]: 8.98% | viability, T/C (second compound 3.16 µM, first compound 0.0999 µM): 10.3% | viability, T/C [27]: 8.29% | viability, T/C (second compound 10 µM, first compound 0.000999 µM): 11.6% | viability, T/C (second compound 10 µM, first compound 0.00316 µM): 9.45% | viability, T/C (second compound 10 µM, first compound 0.00999 µM): 11.2% | viability, T/C [31]: 8.53% | viability, T/C (second compound 10 µM, first compound 0.0999 µM): 10% | viability, T/C [33]: 9.32%

COc1ccc([C@@H](O)c2cc(-c3ncnc4cc(N5CCOCC5)ccc34)c(F)cc2Cl)nn1 + Cc1cnc(CNC(=O)c2c(=O)c3ccc(N4CCCN(C)CC4)nc3n3c2sc2ccccc23)cn1
IC50 (second compound 0.0316 µM): 0.197 µM | IC50 (second compound 0.1 µM): < 0.0316 µM | IC50 (second compound 0.316 µM): < 0.0316 µM | IC50 (second compound 1 µM): < 0.0316 µM | IC50 (second compound 3.16 µM): < 0.0316 µM | IC50 (second compound 10 µM): < 0.0316 µM | viability, T/C [1]: 62.4% | viability, T/C [2]: 64.7% | viability, T/C [3]: 40.7% | viability, T/C [4]: 11.1% | viability, T/C [5]: 5.18% | viability, T/C [6]: 5.46% | viability, T/C [7]: 30.9% | viability, T/C [8]: 34.5% | viability, T/C [9]: 18.7% | viability, T/C [10]: 7.37% | viability, T/C [11]: 4.79% | viability, T/C [12]: 3.15% | viability, T/C [13]: 25.7% | viability, T/C [14]: 25.2% | viability, T/C [15]: 14.1% | viability, T/C [16]: 6.16% | viability, T/C [17]: 4.16% | viability, T/C [18]: 3.4% | viability, T/C [19]: 19.7% | viability, T/C [20]: 17.8% | viability, T/C [21]: 16.1% | viability, T/C [22]: 6.86% | viability, T/C [23]: 4.58% | viability, T/C [24]: 2.36% | viability, T/C [25]: 12% | viability, T/C [26]: 9.89% | viability, T/C [27]: 8.1% | viability, T/C [28]: 4.31% | viability, T/C [29]: 3.47% | viability, T/C [30]: 1.18% | viability, T/C [31]: 9.31% | viability, T/C [32]: 9.19% | viability, T/C [33]: 9.26% | viability, T/C [34]: 4.56% | viability, T/C [35]: 2.94% | viability, T/C [36]: 1.32%

Source: PubChem BioAssay AID2060486 (Molecular Pharmacology Branch, DTP, NCI, 2025)
